Data from patent US7053177B1, “Random peptides that bind to gastro-intestinal tract (GIT) transport receptors and related methods” (Cytogen Corporation, priority 1997, dated 2006).
Ends that are not written are not given here. Peptide text beside a SMILES is read from it. * marks the point of attachment. Dansyl = CN(C)c1cccc2c(S(=O)(=O)*)cccc12; K(dns) = dansyl-lysine

Test system: P100 membrane fraction of Caco-2 cells
Experiment: Dansylated peptide ELISA: relative binding of PAX2 and HAX42 peptides to P100 fractions (ratio to ZElan021)
Conditions: ratio to ZElan021 = 1.00
Procedure: The peptides and proteins were analyzed by a dansylated peptide ELISA method in which 96 well plates were coated overnight at 4° C. with 100 μl/well coating protein (normally 100 μg/ml P100 membrane fraction) in 0.05M carbonate buffer pH9.6. Nonspecific binding was blocked using 200 μl/well, 2% Marvel/PBS for 2 hours at 37° C. prior to incubation with dansylated peptides. The plates were washed three times with PBS/0.05% Tween 20 and after each subsequent incubation step. […] A buffer blank control was included to ensure that background binding to plastic was not due to the antibodies used in the assay system. […] Plates were developed using 75 μl/well Bionostics TMB substrate and incubated for approximately 10 minutes. The developing reaction was stopped using Bionostics Red Stop solution (25 μl/well), and the optical density of the plates was read at 650 nm. […]

Compound | Binding value at 20 μg/ml (PAX2 peptides, first column) | Binding value at 50 μg/ml (Jackson Ab) (PAX2 peptides) | Binding value at 50 μg/ml (Southern Ab) (PAX2 peptides) | Binding value at 50 μg/ml (PAX2 peptides, first column) | Binding value at 50 μg/ml (PAX2 peptides, second column) | further results
H2N-K(dns)SDHALGTNLRSDNAKEPGDYNCCGNG-CONH2 ({K(dns)}-SDHALGTNLRSDNAKEPGDYNCCGNG-NH2; cysteine pairing not given here) [ZElan06O] |  |  |  |  |  | Binding value at 20 μg/ml (HAX42 peptides): 0.44; Binding value at 50 μg/ml (HAX42 peptides, first column): 0.56; Binding value at 50 μg/ml (HAX42 peptides, second column): 0.43
CC(C)C[C@H](NC(=O)[C@H](CCCNC(=N)N)NC(=O)[C@H](C)NC(=O)[C@H](CC(N)=O)NC(=O)[C@H](Cc1c[nH]cn1)NC(=O)[C@H](CO)NC(=O)[C@H](CO)NC(=O)[C@@H](N)CCCCNS(=O)(=O)c1cccc2c(N(C)C)cccc12)C(=O)N[C@@H](CCCNC(=N)N)C(=O)N[C@H](C(=O)N[C@@H](CCCNC(=N)N)C(N)=O)[C@@H](C)O [ZElan077] (H-K(Dansyl)SSHNARLRTR-NH2) | 0.20 | 0.73 | 0.52 | 0.76 | 0.54 | 
CC(C)C[C@H](NC(=O)[C@H](CCCNC(=N)N)NC(=O)[C@H](CCCNC(=N)N)NC(=O)[C@H](CC(N)=O)NC(=O)[C@H](Cc1c[nH]cn1)NC(=O)[C@H](C)NC(=O)[C@H](CO)NC(=O)[C@@H](N)CCCCNS(=O)(=O)c1cccc2c(N(C)C)cccc12)C(=O)N[C@@H](CCCNC(=N)N)C(=O)N[C@H](C(=O)N[C@@H](CCCNC(=N)N)C(N)=O)[C@@H](C)O [ZElan074] (H-K(Dansyl)SAHNRRLRTR-NH2) | 0.06 | 0.71 | 0.48 | 0.82 | 0.52 | 
CC(C)C[C@H](NC(=O)[C@H](CCCNC(=N)N)NC(=O)[C@H](CCCNC(=N)N)NC(=O)[C@H](C)NC(=O)[C@H](Cc1c[nH]cn1)NC(=O)[C@H](CO)NC(=O)[C@H](CO)NC(=O)[C@@H](N)CCCCNS(=O)(=O)c1cccc2c(N(C)C)cccc12)C(=O)N[C@@H](CCCNC(=N)N)C(=O)N[C@H](C(=O)N[C@@H](CCCNC(=N)N)C(N)=O)[C@@H](C)O [ZElan076] (H-K(Dansyl)SSHARRLRTR-NH2) | 0.08 | 0.60 | 0.42 | 1.00 | 0.41 | 
CC(C)C[C@H](NC(=O)[C@H](CCCNC(=N)N)NC(=O)[C@H](CCCNC(=N)N)NC(=O)[C@H](CC(N)=O)NC(=O)[C@H](Cc1c[nH]cn1)NC(=O)[C@H](CO)NC(=O)[C@H](CO)NC(=O)[C@@H](N)CCCCNS(=O)(=O)c1cccc2c(N(C)C)cccc12)C(=O)N[C@@H](CCCNC(=N)N)C(=O)N[C@H](C(=O)N[C@@H](C)C(N)=O)[C@@H](C)O [ZElan082] (H-K(Dansyl)SSHNRRLRTA-NH2) | 0.00 |  |  | 0.92 | 0.40 | 
H2N—K(dns)NCCGNGNSTG ({K(dns)}-NCCGNGNSTG-NH2; cysteine pairing not given here) [ZElan093] |  |  |  |  |  | Binding value at 25 μg/ml (HAX42 peptides, first column): 1.88; Binding value at 25 μg/ml (HAX42 peptides, second column): 1.37; Binding value at 25 μg/ml (HAX42 peptides, third column): 1.33
K(Dansyl)GRNHDVVSSNTHKSYRSPRSASYPRLSNDRTDRTEPAPSS-NH2 [ZElan083] | 0.43 |  |  |  | 0.88 | Binding value at 20 μg/ml (PAX2 peptides, second column): 0.63
CC(C)C[C@H](NC(=O)[C@H](CCCNC(=N)N)NC(=O)[C@H](CCCNC(=N)N)NC(=O)[C@@H](N)CCCCNS(=O)(=O)c1cccc2c(N(C)C)cccc12)C(=O)N[C@@H](CCCNC(=N)N)C(=O)N[C@H](C(=O)N[C@@H](CCCNC(=N)N)C(=O)N[C@@H](CO)C(=O)N[C@@H](CCCNC(=N)N)C(N)=O)[C@@H](C)O [ZElan057] (H-K(Dansyl)RRLRTRSR-NH2) | 0.08 |  |  | 0.56 | 0.25 | 
C[C@H](NC(=O)[C@H](CC(N)=O)NC(=O)[C@@H](NC(=O)[C@@H](N)CCCCNS(=O)(=O)c1cccc2c(N(C)C)cccc12)[C@@H](C)O)C(=O)N[C@@H](CCCCN)C(=O)N[C@@H](Cc1c[nH]cn1)C(=O)N[C@@H](CO)C(=O)N[C@@H](CO)C(=O)N[C@@H](Cc1c[nH]cn1)C(=O)N[C@@H](CC(N)=O)C(N)=O [ZElan055] (H-K(Dansyl)TNAKHSSHN-NH2) | 0.99 |  |  | 1.10 | 0.59 | Binding value at 20 μg/ml (PAX2 peptides, second column): 0.73
CC(C)C[C@H](NC(=O)[C@H](CCCNC(=N)N)NC(=O)[C@H](CCCNC(=N)N)NC(=O)[C@H](CC(N)=O)NC(=O)[C@H](Cc1c[nH]cn1)NC(=O)[C@H](CO)NC(=O)[C@H](C)NC(=O)[C@@H](N)CCCCNS(=O)(=O)c1cccc2c(N(C)C)cccc12)C(=O)N[C@@H](CCCNC(=N)N)C(=O)N[C@H](C(=O)N[C@@H](CCCNC(=N)N)C(N)=O)[C@@H](C)O [ZElan073] (H-K(Dansyl)ASHNRRLRTR-NH2) | 0.07 | 0.66 | 0.49 | −0.11 | 0.49 | 
H2N—K(dns)SDHALGTNLRSDNAK ({K(dns)}-SDHALGTNLRSDNAK; not fully specified (C-terminus); printed as H2N—K(dns)SDHALGTNLRSDNAK) [ZElan089] |  |  |  |  |  | Binding value at 25 μg/ml (HAX42 peptides, first column): 0.55; Binding value at 25 μg/ml (HAX42 peptides, second column): 0.44; Binding value at 25 μg/ml (HAX42 peptides, third column): 0.49
H2N—K(dns)SDHALGTNLRSDNAKEPGDY ({K(dns)}-SDHALGTNLRSDNAKEPGDY; not fully specified (C-terminus); printed as H2N—K(dns)SDHALGTNLRSDNAKEPGDY) [ZElan087] |  |  |  |  |  | Binding value at 25 μg/ml (HAX42 peptides, first column): 0.46; Binding value at 25 μg/ml (HAX42 peptides, second column): 0.44
CC(C)C[C@H](NC(=O)[C@H](C)NC(=O)[C@H](Cc1c[nH]cn1)NC(=O)[C@H](CC(=O)O)NC(=O)[C@H](CO)NC(=O)[C@@H](N)CCCCNS(=O)(=O)c1cccc2c(N(C)C)cccc12)C(=O)NCC(=O)N[C@H](C(=O)N[C@@H](CC(N)=O)C(=O)N[C@@H](CC(C)C)C(=O)N[C@@H](CCCNC(=N)N)C(=O)N[C@@H](CO)C(=O)N[C@@H](CC(=O)O)C(=O)N[C@@H](CC(N)=O)C(=O)N[C@@H](C)C(=O)N[C@@H](CCCCN)C(=O)N[C@@H](CCC(=O)O)C(=O)N1CCC[C@H]1C(=O)NCC(=O)N[C@@H](CC(=O)O)C(=O)N[C@@H](Cc1ccc(O)cc1)C(=O)N[C@@H](CC(N)=O)C(=O)N[C@@H](CS)C(=O)N[C@@H](CS)C(=O)NCC(=O)N[C@@H](CC(N)=O)C(=O)NCC(=O)N[C@@H](CC(N)=O)C(=O)N[C@@H](CO)C(=O)N[C@H](C(N)=O)[C@@H](C)O)[C@@H](C)O [ZElan070] (H-K(Dansyl)SDHALGTNLRSDNAKEPGDYNCCGNGNST-NH2) |  |  |  |  |  | Binding value at 20 μg/ml (HAX42 peptides): 0.59; Binding value at 50 μg/ml (HAX42 peptides, first column): 0.97; Binding value at 50 μg/ml (HAX42 peptides, second column): 0.39
CC(C)C[C@H](NC(=O)[C@H](CCCNC(=N)N)NC(=O)[C@H](CCCNC(=N)N)NC(=O)[C@H](CC(N)=O)NC(=O)[C@H](Cc1c[nH]cn1)NC(=O)[C@H](CO)NC(=O)[C@H](CO)NC(=O)[C@@H](N)CCCCNS(=O)(=O)c1cccc2c(N(C)C)cccc12)C(=O)N[C@@H](CCCNC(=N)N)C(=O)N[C@@H](C)C(=O)N[C@@H](CCCNC(=N)N)C(N)=O [ZElan081] (H-K(Dansyl)SSHNRRLRAR-NH2) | 0.01 |  |  | 0.89 | 0.47 | 
CC[C@H](C)[C@H](NC(=O)[C@H](C)NC(=O)[C@H](CO)NC(=O)[C@@H]1CCCN1C(=O)[C@H](CCCNC(=N)N)NC(=O)[C@H](CCCNC(=N)N)NC(=O)[C@H](CCCNC(=N)N)NC(=O)[C@H](CC(N)=O)NC(=O)[C@H](Cc1ccccc1)NC(=O)[C@@H](NC(=O)[C@H](CCCCN)NC(=O)[C@H](CCCNC(=N)N)NC(=O)CNC(=O)[C@@H](NC(=O)[C@H](CO)NC(=O)[C@H](CC(N)=O)NC(=O)CNC(=O)[C@H](CC(N)=O)NC(=O)CNC(=O)[C@H](CS)NC(=O)[C@H](CS)NC(=O)[C@H](CC(N)=O)NC(=O)[C@H](Cc1ccc(O)cc1)NC(=O)[C@H](CC(=O)O)NC(=O)CNC(=O)[C@@H](N)CCCCNS(=O)(=O)c1cccc2c(N(C)C)cccc12)[C@@H](C)O)C(C)C)C(=O)N1CCC[C@H]1C(=O)N[C@H](C(N)=O)[C@@H](C)O [ZElan061] (H-K(Dansyl)GDYNCCGNGNSTGRKVFNRRRPSAIPT-NH2) |  |  |  |  |  | Binding value at 20 μg/ml (HAX42 peptides): 0.20; Binding value at 50 μg/ml (HAX42 peptides, first column): 0.60; Binding value at 50 μg/ml (HAX42 peptides, second column): 0.38
C[C@H](NC(=O)[C@H](CCCNC(=N)N)NC(=O)[C@H](CCCNC(=N)N)NC(=O)[C@H](CC(N)=O)NC(=O)[C@H](Cc1c[nH]cn1)NC(=O)[C@H](CO)NC(=O)[C@H](CO)NC(=O)[C@@H](N)CCCCNS(=O)(=O)c1cccc2c(N(C)C)cccc12)C(=O)N[C@@H](CCCNC(=N)N)C(=O)N[C@H](C(=O)N[C@@H](CCCNC(=N)N)C(N)=O)[C@@H](C)O [ZElan079] (H-K(Dansyl)SSHNRRARTR-NH2) | 0.31 | 0.83 | 0.53 | 0.97 | 0.68 | 
